Measured values reported in US4459290A, “C-23-Modified derivatives of OMT, pharmaceutical compositions and method of use” (priority 1982, dated 1984).
Converted amounts (≈) assume the structure as drawn. Like-named read-outs stand apart in the source and are kept apart here.

Legend:
Mycoplasma synoviae = assay: MIC, broth-dilution microtiter test (Table VII); type: cell-based; conditions: Mycoplasmopsis synoviae
Protocol: (§1) Especially noteworthy is the improved activity against gram-negative bacteria for several derivatives when compared to the activity of OMT. […] The MIC's in Tables V and VI were determined by standard agar-dilution assays. The MIC's in Table VII were obtained using a conventional broth-dilution microtiter test.

Mycoplasma gallisepticum = assay: MIC, broth-dilution microtiter test (Table VII); type: cell-based; conditions: Mycoplasmoides gallisepticum
Protocol: as §1

[1] = tested on: Pasteurella hemolytica 41D; assay: MIC, broth-dilution microtiter test (Table VII); type: cell-based; conditions: Pasteurella, P. hemolytica 41D, read-out: MIC
Protocol: as §1

[2] = tested on: Pasteurella multocida 22A; assay: MIC, broth-dilution microtiter test (Table VII); type: cell-based; conditions: Pasteurella multocida, 22A
Protocol: as §1

[3] = tested on: Pasteurella hemolytica 22C; assay: MIC, broth-dilution microtiter test (Table VII); type: cell-based; conditions: Pasteurella, P. hemolytica 22C, read-out: MIC
Protocol: as §1

[4] = tested on: Pasteurella multocida 17E; assay: MIC, broth-dilution microtiter test (Table VII); type: cell-based; conditions: Pasteurella multocida, 17E
Protocol: as §1

[5] = tested on: Pasteurella multocida 68C; assay: MIC, broth-dilution microtiter test (Table VII); type: cell-based; conditions: Pasteurella multocida, 68C
Protocol: as §1

[6] = tested on: Pasteurella hemolytica 23C; assay: MIC, broth-dilution microtiter test (Table VII); type: cell-based; conditions: Pasteurella, P. hemolytica 23C, read-out: MIC
Protocol: as §1

Staphylococcus aureus = assay: MIC, broth-dilution microtiter test (Table VII); type: cell-based; conditions: Staphylococcus aureus
Protocol: as §1

[7] = tested on: Pasteurella multocida 60A; assay: MIC, broth-dilution microtiter test (Table VII); type: cell-based; conditions: Pasteurella multocida, 60A
Protocol: as §1

[8] = tested on: Pasteurella multocida 40G; assay: MIC, broth-dilution microtiter test (Table VII); type: cell-based; conditions: Pasteurella multocida, 40G
Protocol: as §1

Mycoplasma hyorhinis = assay: MIC, broth-dilution microtiter test (Table VII); type: cell-based
Protocol: as §1

Streptococcus sp. 80 = assay: MIC, broth-dilution microtiter test (Table VII); type: cell-based
Protocol: as §1

[9] = tested on: Staphylococcus epidermidis EPI1; assay: MIC, standard agar-dilution assay (Table V); type: cell-based; conditions: Staphylococcus epidermidis
Protocol: as §1

Escherichia coli EC14 = assay: MIC, standard agar-dilution assay (Table V); type: cell-based; conditions: Escherichia coli; E. coli EC14; agar dilution; read-out: MIC
Protocol: as §1

[10] = tested on: Staphylococcus epidermidis EPI2; assay: MIC, standard agar-dilution assay (Table V); type: cell-based; conditions: Staphylococcus epidermidis
Protocol: as §1

[11] = tested on: Staphylococcus aureus X1.1; assay: MIC, standard agar-dilution assay (Table V); type: cell-based; conditions: Staphylococcus aureus, X1.1
Protocol: as §1

[12] = tested on: Klebsiella pneumoniae X26; assay: MIC, standard agar-dilution assay (Table V); type: cell-based; conditions: Klebsiella pneumoniae
Protocol: as §1

[13] = tested on: Staphylococcus aureus S13E; assay: MIC, standard agar-dilution assay (Table V); type: cell-based; conditions: Staphylococcus aureus, S13E
Protocol: as §1

[14] = tested on: Staphylococcus aureus V41; assay: MIC, standard agar-dilution assay (Table V); type: cell-based; conditions: Staphylococcus aureus
Protocol: as §1

[15] = tested on: Staphylococcus aureus X400; assay: MIC, standard agar-dilution assay (Table V); type: cell-based; conditions: Staphylococcus aureus
Protocol: as §1

[16] = tested on: Klebsiella pneumoniae KAE; assay: MIC, standard agar-dilution assay (Table V); type: cell-based; conditions: Klebsiella pneumoniae; K. pneumoniae KAE; agar dilution; read-out: MIC
Protocol: as §1

Shigella sonnei N9 = assay: MIC, standard agar-dilution assay (Table V); type: cell-based
Protocol: as §1

Streptococcus Group 9960 = assay: MIC, standard agar-dilution assay (Table V); type: cell-based; conditions: GROUP9960
Protocol: as §1

[17] = tested on: Streptococcus Group D X66; assay: MIC, standard agar-dilution assay (Table V); type: cell-based
Protocol: as §1

Escherichia coli N10 = assay: MIC, standard agar-dilution assay (Table V); type: cell-based; conditions: Escherichia coli; E. coli N10; agar dilution; read-out: MIC
Protocol: as §1

[18] = tested on: Streptococcus pyogenes C203; assay: MIC, standard agar-dilution assay (Table V); type: cell-based; conditions: Streptococcus pyogenes
Protocol: (§2) The MIC's in Tables V and VI were determined by standard agar-dilution assays. The MIC's in Table VII were obtained using a conventional broth-dilution microtiter test.

Escherichia coli TEM = assay: MIC, standard agar-dilution assay (Table V); type: cell-based; conditions: Escherichia coli; E. coli TEM; agar dilution; read-out: MIC
Protocol: as §2

these strains = assay: Activity against the strains of Table VI, agar-dilution; type: cell-based; conditions: at the levels tested
Protocol: as §1

[19] = tested on: Streptococcus pneumoniae Park I; assay: microbe, parasite or virus in culture; type: cell-based; conditions: Streptococcus pneumoniae
Protocol: as §1

[20] = tested on: Enterobacter aerogenes EB17; assay: MIC, standard agar-dilution assay (Table VI); type: cell-based; conditions: Klebsiella aerogenes; E. aerogenes EB17; agar dilution; read-out: MIC
Protocol: as §1

Proteus morganii PR15 = assay: MIC, standard agar-dilution assay (Table VI); type: cell-based; conditions: Morganella morganii; P. morganii PR15; agar dilution; read-out: MIC
Protocol: as §1

[21] = tested on: Pseudomonas aeruginosa Ps18; assay: MIC, standard agar-dilution assay (Table VI); type: cell-based; conditions: P. aeruginosa Ps18, agar dilution, read-out: MIC
Protocol: as §1

Salmonella typhi 1335 = assay: MIC, standard agar-dilution assay (Table VI); type: cell-based; conditions: Salmonella enterica
Protocol: as §1

[22] = tested on: Pseudomonas aeruginosa X528; assay: MIC, standard agar-dilution assay (Table VI); type: cell-based; conditions: X528
Protocol: as §1

[23] = tested on: Salmonella heidelberg X514; assay: MIC, standard agar-dilution assay (Table VI); type: cell-based; conditions: Salmonella enterica; S. heidelberg X514; agar dilution; read-out: MIC
Protocol: as §1

Serratia marcescens SE3 = assay: MIC, standard agar-dilution assay (Table VI); type: cell-based; conditions: S. marcescens SE3, agar dilution, read-out: MIC
Protocol: as §1

Serratia marcescens X99 = assay: MIC, standard agar-dilution assay (Table VI); type: cell-based; conditions: S. marcescens X99, agar dilution, read-out: MIC
Protocol: as §1

[24] = tested on: Enterobacter aerogenes C32; assay: MIC, standard agar-dilution assay (Table VI); type: cell-based; conditions: Klebsiella aerogenes; E. aerogenes C32; agar dilution; read-out: MIC
Protocol: as §1

[25] = tested on: Klebsiella pneumoniae X68; assay: MIC, standard agar-dilution assay (Table VI); type: cell-based; conditions: K. pneumoniae X68, agar dilution, read-out: MIC
Protocol: as §1

[26] = tested on: Citrobacter freundii CF17; assay: MIC, standard agar-dilution assay (Table VI); type: cell-based; conditions: C. freundii CF17, agar dilution, read-out: MIC
Protocol: as §1

Proteus inconstans PR33 = assay: MIC, standard agar-dilution assay (Table VI); type: cell-based; conditions: Providencia alcalifaciens; P. inconstans PR33; agar dilution; read-out: MIC
Protocol: as §1

Proteus rettgeri PR7 = assay: MIC, standard agar-dilution assay (Table VI); type: cell-based; conditions: Providencia rettgeri; P. rettgeri PR7; agar dilution; read-out: MIC
Protocol: as §1

Proteus rettgeri C24 = assay: MIC, standard agar-dilution assay (Table VI); type: cell-based; conditions: Providencia rettgeri, P. rettgeri C24
Protocol: as §1

Enterobacter cloacae EB5 = assay: MIC, standard agar-dilution assay (Table VI); type: cell-based; conditions: E. cloacae EB5, agar dilution, read-out: MIC
Protocol: as §1

[27] = tested on: Pseudomonas aeruginosa X239; assay: MIC, standard agar-dilution assay (Table VI); type: cell-based; conditions: P. aeruginosa X239, agar dilution, read-out: MIC
Protocol: as §1

[28] = tested on: Streptococcus pyogenes C203; assay: ED50 in mice experimentally infected with S. pyogenes C203 (Table VIII); type: in vivo
Protocol: The C-23 modified derivatives of OMT of this invention have shown in vivo antimicrobial activity against experimental infections. When two doses of test compound were administered to mice experimentally infected with a gram-positive bacterium, S. pyogenes C203, the activity observed was measured as an ED50 value [effective dose in mg/kg to protect 50% of the test animals: see Warren Wick, et al., J. Bacteriol. 81, 233-235 (1961)].

[29] = tested on: Haemophilus influenzae Holt; assay: MIC, standard agar-dilution assay (Table V); type: cell-based; conditions: Haemophilus influenzae
Protocol: as §2

[30] = tested on: Haemophilus influenzae R252; assay: MIC, standard agar-dilution assay (Table V); type: cell-based; conditions: Haemophilus influenzae, R252
Protocol: as §2

Structure (SMILES): CCC1OC(=O)CC(O)C(C)C(OC2OC(C)C(O)C(N(C)C)C2OC(C)=O)C(CC=O)CC(C)C(=O)C=CC(C)=CC1C[n+]1ccccc1 (stereo not shown) [Compound 1, 2'-O-Acetyl-23-deoxy-23-pyridinium-OMT Trifluoro methanesulfonate]
- MIC (Mycoplasma synoviae): 12.5 µg/mL
- MIC (Mycoplasma gallisepticum; M. gallisepticum, broth-dilution microtiter, read-out: MIC): 25 µg/mL
- MIC [1]: > 50 µg/mL
- MIC [2]: > 50 µg/mL
- MIC [3]: > 50 µg/mL
- MIC [4]: > 50 µg/mL
- MIC [5]: > 50 µg/mL
- MIC [6]: > 50 µg/mL
- MIC (Staphylococcus aureus): 50 µg/mL
- MIC [7]: > 50 µg/mL
- MIC [8]: > 50 µg/mL
- MIC (Mycoplasma hyorhinis): 50 µg/mL
- MIC (Streptococcus sp. 80; Streptococcus sp. 80, broth-dilution microtiter, read-out: MIC): 12.5 µg/mL
- MIC ([9]; S. epidermidis EPI1, agar dilution, read-out: MIC): 32 µg/mL
- MIC (Escherichia coli EC14): > 128 µg/mL
- MIC ([10]; S. epidermidis EPI2, agar dilution, read-out: MIC): 64 µg/mL
- MIC [11]: 32 µg/mL
- MIC ([12]; X26): 64 µg/mL
- MIC [13]: 32 µg/mL
- MIC ([14]; S. aureus V41, penicillin-resistant strain, agar dilution, read-out: MIC): 64 µg/mL
- MIC ([15]; S. aureus X400, methicillin-resistant strain, agar dilution, read-out: MIC): 64 µg/mL
- MIC [16]: > 128 µg/mL
- MIC (Shigella sonnei N9): > 128 µg/mL
- MIC (Streptococcus Group 9960): 64 µg/mL
- MIC [17]: 64 µg/mL
- MIC (Escherichia coli N10): > 128 µg/mL
- MIC ([18]; S. pyogenes C203, agar dilution, read-out: MIC): 32 µg/mL
- MIC (Escherichia coli TEM): > 128 µg/mL
- activity against these strains (these strains): did not show activity
- MIC ([19]; S. pneumoniae Park I, agar dilution, read-out: MIC): 8 µg/mL

Structure (SMILES): CCC1OC(=O)CC(O)C(C)C(OC2OC(C)C(O)C(N(C)C)C2O)C(CC=O)CC(C)C(=O)C=CC(C)(OC)C2CC12 (stereo not shown) [Compound 17]
- MIC (Mycoplasma synoviae): 1.56 µg/mL (≈ 2.55 µM)
- MIC (Mycoplasma gallisepticum): 0.78 µg/mL (≈ 1.27 µM)
- MIC [1]: 25 µg/mL (≈ 40.9 µM)
- MIC [2]: 6.25 µg/mL (≈ 10.2 µM)
- MIC [3]: 25 µg/mL (≈ 40.9 µM)
- MIC [4]: 6.25 µg/mL (≈ 10.2 µM)
- MIC [5]: 6.25 µg/mL (≈ 10.2 µM)
- MIC [6]: 25 µg/mL (≈ 40.9 µM)
- MIC (Staphylococcus aureus): 3.12 µg/mL (≈ 5.1 µM)
- MIC [7]: 12.5 µg/mL (≈ 20.4 µM)
- MIC [8]: 6.25 µg/mL (≈ 10.2 µM)
- MIC (Mycoplasma hyorhinis; M. hyorhinis, broth-dilution microtiter, read-out: MIC): 25 µg/mL (≈ 40.9 µM)
- MIC (Streptococcus sp. 80; Streptococcus, SP.80): 1.56 µg/mL (≈ 2.55 µM)
- MIC [20]: > 128 µg/mL
- MIC (Proteus morganii PR15): > 128 µg/mL
- MIC [21]: > 128 µg/mL
- MIC (Salmonella typhi 1335): > 128 µg/mL
- MIC [22]: 64 µg/mL (≈ 105 µM)
- MIC [23]: > 128 µg/mL
- MIC (Serratia marcescens SE3): > 128 µg/mL
- MIC (Serratia marcescens X99): > 128 µg/mL
- MIC [24]: > 128 µg/mL
- MIC [25]: > 128 µg/mL
- MIC [26]: > 128 µg/mL
- MIC (Proteus inconstans PR33): > 128 µg/mL
- MIC (Proteus rettgeri PR7): > 128 µg/mL
- MIC (Proteus rettgeri C24): > 128 µg/mL
- MIC (Enterobacter cloacae EB5): > 128 µg/mL
- MIC [27]: > 128 µg/mL
- MIC ([9]; EPI1): 2 µg/mL (≈ 3.27 µM)
- MIC (Escherichia coli EC14): > 128 µg/mL
- MIC ([10]; EPI2): 2 µg/mL (≈ 3.27 µM)
- MIC [11]: 2 µg/mL (≈ 3.27 µM)
- MIC ([12]; K. pneumoniae X26, agar dilution, read-out: MIC): 16 µg/mL (≈ 26.2 µM)
- MIC [13]: 2 µg/mL (≈ 3.27 µM)
- MIC ([14]; V41): 2 µg/mL (≈ 3.27 µM)
- MIC ([15]; X400): 2 µg/mL (≈ 3.27 µM)
- MIC [16]: > 128 µg/mL
- MIC (Shigella sonnei N9): > 128 µg/mL
- MIC (Streptococcus Group 9960): 2 µg/mL (≈ 3.27 µM)
- MIC [17]: 2 µg/mL (≈ 3.27 µM)
- MIC (Escherichia coli N10): > 128 µg/mL
- ED50 ([28]; C203, po, read-out: ED50, Oral): > 100 mg/kg
- ED50 ([28]; C203, sc, read-out: ED50, Subcutaneous): > 25 mg/kg
- MIC ([18]; C203): 1 µg/mL (≈ 1.63 µM)
- MIC [29]: 8 µg/mL (≈ 13.1 µM)
- MIC [30]: 8 µg/mL (≈ 13.1 µM)
- MIC (Escherichia coli TEM): 64 µg/mL (≈ 105 µM)
- MIC [19]: 0.25 µg/mL (≈ 0.409 µM)
